Measured values: US20060276542A1, “Methods for treating functional bowel disorders using alpha2 subunit calcium channel modulators with smooth muscle modulators” (priority 2003, published 2006)

Tests used:
beta-adrenergic = details: cited from earlier work
[1] = preclinical and clinical studies, cited from earlier work
[2] = tested on: reduction in bladder capacity following continuous infusion of dilute acetic acid; test: Dilute acetic acid irritative model, bladder capacity by cystometry; type: in vivo, rat; details: isobologram, drug alone; for common maximal effect, return to % of saline control bladder capacity: group mean data; for common maximal effect (target value), return to % of saline control bladder capacity: individual responses
Protocol: Urethane anesthetized (1.2 g/kg) normal female rats were utilized in this study.
Animals were dosed by volume of injection=body weight in kg.
Animal Preparation: Female rats (250-300 g body weight) were anesthetized with urethane (1.2 g/kg) and a saline-filled catheter (PE-50) was inserted into the jugular vein for intravenous drug administration. […] The abdominal cavity was moistened with saline and closed by covering with a thin plastic sheet in order to maintain access to the bladder for emptying purposes. Fine silver or stainless steel wire electrodes were inserted into the external urethral sphincter (EUS) percutaneously for electromyography (EMG).
Following 30 minutes of AA infusion, 3 vehicle injections were made at 20 minute intervals to determine vehicle effects, if any.
P<0.050 was considered significant.

Row | Compound | potency of L-enantiomer relative to D-enantiomer (beta-adrenergic) [times] | blood levels of gabapentin across a broad range of oral doses ([1]; oral) | absorption from the large intestine [1] | common maximal effect, return to % of saline control bladder capacity [2] | common maximal effect (target value), return to % of saline control bladder capacity [2]
1 | CC(C)NC[C@H](O)COc1cccc2ccccc12 [L-enantiomer of propranolol, propranolol] | 100 |  |  |  | 
2 | CC(OC(=O)NCC1(CC(=O)O)CCCCC1)OC(=O)C(C)C (stereo not shown) [XP13512] |  | dose proportional blood levels of gabapentin | absorbed efficiently from the large intestine |  | 
3 | NCC1(CC(=O)O)CCCCC1 [gabapentin, 1-(aminomethyl)cyclohexaneacetic acid] |  |  |  | 43 % of saline control | 31 % of saline control
4 | CCN(CC)CC#CCOC(=O)C(O)(c1ccccc1)C1CCCCC1 (stereo not shown) [oxybutynin, 4-diethylaminio-2-butynyl phenylcyclohexyglycolate] |  |  |  | 43 % of saline control | 31 % of saline control
